Eight compounds from patent US20250188042A1, “HETEROCYCLIC COMPOUND, PREPARATION METHOD THEREFOR, AND USE THEREOF” (SICHUAN UNIVERSITY, priority 2023, published 2025) can be followed below.

What all share (assay type): cell-based
One assay relates to HSC-3. Put plainly: CCK8 proliferation assay on squamous cell carcinoma cell line HSC-3. Particulars: Homo sapiens, first of two lines listed (HSC-3, HSC-4), 48 h, read-out: IC50 against SCC cells (first of two SCC cells). The method, then: (§1) Squamous cell carcinoma cell lines: HSC-3, HSC-4.
(§2) The above two tumor cell lines were cultured in a standardized incubator at 37° C. under 5% CO2; the cells in logarithmic growth phase were digested and counted, followed by seeding in a 96-well plate at 3000 cells/well, and then cultured overnight in an incubator. The stock solution of each compound was prepared using DMSO at a concentration of 10 mM, and diluted sequentially (0, 1.25, 2.5, 5, 10 μM) before treating the cells. The control group was added with the highest concentration of DMSO, and then cultivated continuously in an incubator for 48 h. The CCK8 cell proliferation kit was used to detect the effect of each compound on the proliferation of tumor cells. Moreover, the experimental results of representative compounds were analyzed, and their IC50 values were calculated to evaluate the effect of the compounds on the proliferation of tumor cells.

In another assay the test system is HSC-4. Put plainly: CCK8 proliferation assay on squamous cell carcinoma cell line HSC-4. The following applies: Homo sapiens, second of two lines listed (HSC-3, HSC-4), 48 h, read-out: IC50 against SCC cells (second of two SCC cells). How it is done:
as §1, §2

In another assay the test system is SCC cells. Put plainly: CCK8 proliferation assay on SCC cells (cell line not specified). The following applies: SCC cell line not stated (HSC-3 or HSC-4), 48 h, read-out: IC50 against SCC cells. How it is done:
as §1, §2

Take `O=C(CCn1ccc(=O)n(CCC(=O)Nc2ccc(C34CC5CC(CC(C5)C3)C4)cc2)c1=O)Nc1ccc(C23CC4CC(CC(C4)C2)C3)cc1` [Compound 8a]: the IC50 in the assay with HSC-3 was 4.85 µM; in the assay on HSC-4, 9.87 µM.

In the case of `CCc1cn(CCC(=O)Nc2ccc(C34CC5CC(CC(C5)C3)C4)cc2)c(=O)n(CCC(=O)Nc2ccc(C34CC5CC(CC(C5)C3)C4)cc2)c1=O` [Compound 10a], the concentration for half-maximal inhibition (IC50) in the assay with SCC cells stood at 6.18 µM.

Consider `N#Cc1cn(CCC(=O)Nc2ccc(C34CC5CC(CC(C5)C3)C4)cc2)c(=O)n(CCC(=O)Nc2ccc(C34CC5CC(CC(C5)C3)C4)cc2)c1=O` [Compound 12a], for which, in the assay on SCC cells, the IC50 was 9.54 µM.

As for `COc1cn(CCC(=O)Nc2ccc(C34CC5CC(CC(C5)C3)C4)cc2)c(=O)n(CCC(=O)Nc2ccc(C34CC5CC(CC(C5)C3)C4)cc2)c1=O` [Compound 14a], the IC50 in the assay on SCC cells stood at 6.18 µM.

For `O=C(CCn1cc(Cl)c(=O)n(CCC(=O)Nc2ccc(C34CC5CC(CC(C5)C3)C4)cc2)c1=O)Nc1ccc(C23CC4CC(CC(C4)C2)C3)cc1` [Compound 16a], the IC50 in the assay with SCC cells came out at 9.66 µM.

Consider `O=C(CCn1cc(Br)c(=O)n(CCC(=O)Nc2ccc(C34CC5CC(CC(C5)C3)C4)cc2)c1=O)Nc1ccc(C23CC4CC(CC(C4)C2)C3)cc1` [Compound 18a], for which the IC50 in the assay with SCC cells came out at 4.85 µM.

`O=C(CCn1cc(I)c(=O)n(CCC(=O)Nc2ccc(C34CC5CC(CC(C5)C3)C4)cc2)c1=O)Nc1ccc(C23CC4CC(CC(C4)C2)C3)cc1` [Compound 20a]: the half-maximal inhibitory concentration (IC50) in the assay with SCC cells worked out at 4.86 µM.

Regarding `Nc1ccn(CCC(=O)Nc2ccc(C34CC5CC(CC(C5)C3)C4)cc2)c(=O)n1` [Compound 24], the half-inhibitory concentration (IC50) with SCC cells turned out to be 1.48 µM.
